In assay [1] the target is recombinant human FGFR3 (amino acids R397-T806) (Homo sapiens (Human), UniProt P22607). The experiment in a line: FGFR3 enzyme activity assay (LanthaScreen TR-FRET). The class given is biochemical. The settings on record: 25 μM ATP, 10 min incubation at 22° C., average of multiple determinations if made, read-out: FGFR3 Enz FRET IC50. An outline of the steps:
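GST-HIS6-tagged human FGFR3 (R397-T806) was reacted with 100 nM Alexa Fluor 647-Poly-GT substrate and 25 μM ATP plus compound in HEPES/MgCl2/Triton buffer, pH 7.5, 2% DMSO, for 10 min at 22 °C.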
For orientation: In TR-FRET formats the signal depends on donor and acceptor labels being close together.

The target of assay [2] is HEK-293 cells transfected with dox-inducible human wild type FGFR2 (Homo sapiens (Human), UniProt P21802). In words: FGFR2 pFGFR cell assay (ELISA). The class given is cell-based. The settings on record: HEK-293 dox-inducible FGFR2, 1 hour compound, 30 ng/ml FGF-acidic. As to the method: FGFR2 pFGFR Cell Assay: • HEK-293 cells transfected with dox-inducible human wild type FGFR2 (SEQ ID NO: 3) were plated in a collagen or poly-D-lysine coated 96 well flat bottom plates at 4×10^5 cells/well in complete DMEM medium containing 10% FBS and 1 μg/ml doxycycline and allowed to attach for 24 h at 37° C., 5% CO2. Cells were treated with compound using 1:3 serial dilutions with a maximum final concentration of 5 μM. Compound was incubated on cells for 1 hour at 37° C., 5% CO2. Cells were then stimulated with a final concentration of 30 ng/ml human FGF-acidic (R&D Systems Cat number 232-FA/CF) for 5 minutes at 37° C., 5% CO2. Medium was removed and cells were lysed with lysis buffer containing phosphatase and protease inhibitors. Phospho FGFR2 was measured by ELISA (R&D Systems cat. no. DYC684). The ELISA captures total FGFR2 and detects total phospho tyrosine. Optical density was measured for each well using a Versamax reader at a wavelength of 450 nm. 100 POC was determined using no test compounds and 0 POC was determined using a control compound. The POC values were fit to a 4-parameter logistic curve as a function of the concentration of the compound, and the IC50 value is the point where the curve crosses 50 POC.
Sequence of HEK-293 cells transfected with dox-inducible human wild type FGFR2 (P21802 22-821): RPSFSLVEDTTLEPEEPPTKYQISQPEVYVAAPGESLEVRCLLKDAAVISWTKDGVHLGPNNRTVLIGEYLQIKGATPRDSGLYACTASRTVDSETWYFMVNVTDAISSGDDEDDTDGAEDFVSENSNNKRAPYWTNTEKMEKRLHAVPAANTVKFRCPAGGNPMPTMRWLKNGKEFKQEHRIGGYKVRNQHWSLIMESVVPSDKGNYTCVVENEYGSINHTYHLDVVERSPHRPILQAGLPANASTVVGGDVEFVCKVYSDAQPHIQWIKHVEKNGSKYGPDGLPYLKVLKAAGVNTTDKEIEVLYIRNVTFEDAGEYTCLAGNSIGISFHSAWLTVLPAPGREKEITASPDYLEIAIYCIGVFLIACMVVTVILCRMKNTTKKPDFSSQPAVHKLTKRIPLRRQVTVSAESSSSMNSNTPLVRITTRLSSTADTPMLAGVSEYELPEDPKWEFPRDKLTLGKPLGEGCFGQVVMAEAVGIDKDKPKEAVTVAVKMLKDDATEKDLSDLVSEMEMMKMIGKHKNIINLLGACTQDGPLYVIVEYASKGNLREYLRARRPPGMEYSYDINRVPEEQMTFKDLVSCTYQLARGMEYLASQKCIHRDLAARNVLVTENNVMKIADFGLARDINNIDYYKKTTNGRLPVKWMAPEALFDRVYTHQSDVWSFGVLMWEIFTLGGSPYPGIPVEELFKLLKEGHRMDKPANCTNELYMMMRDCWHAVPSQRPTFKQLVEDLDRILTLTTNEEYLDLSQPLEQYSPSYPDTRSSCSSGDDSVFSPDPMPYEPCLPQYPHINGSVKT
A general note: An ELISA detects its analyte on a solid surface through an enzyme-linked reagent.

In assay [3] the target is phosphorylated FGFR3 (SEQ ID NO: 5, amino acids 449 to 759) (Homo sapiens (Human), UniProt P22607). In words: FGFR enzyme binding assay (HTRF tracer displacement), FGFR3. To be noted: 5 nM phosphorylated FGFR3, average of multiple determinations if made. An outline of the steps:
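Kinase and tracer were incubated with compound for 60 minutes at 22° C. Tracer displacement was then measured by HTRF, and results were expressed as POC with 1 μM control inhibitor defining full displacement.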

Assay [4] addresses recombinant human FGFR1 catalytic domain (amino acids 308-731) (Homo sapiens (Human), UniProt P11362). The experiment in a line: FGFR1 enzyme activity assay (LanthaScreen TR-FRET). The class given is biochemical. To be noted: 20 min incubation at 22° C., average of multiple determinations if made, read-out: FGFR1 Enz FRET IC50. In a few lines:
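His-tagged FGFR1 kinase domain with 100 nM Alexa Fluor 647-poly-GT peptide and ATP in pH 7.5 HEPES/MgCl2 buffer with 2% DMSO, 20 min at 22 °C. Quenched with EDTA plus 2 nM Eu-PY20 antibody and read after 60 min. IC50 comes from a 4-parameter fit of percent of control.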

For assay [5], the target named is FGFR3 (SEQ ID NO: 5, amino acids 449-759) (Homo sapiens (Human), UniProt P22607). In words: LC/MS FGFR3 kobs assay (covalent protein modification). The class given is binding. To be noted: 500 nM FGFR3, 3 μM compound. An outline of the steps:
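kobs is the rate constant from an exponential-decay fit of percent unmodified kinase, normalized to DMSO controls, averaged over multiple determinations where available. Time-course samples of FGFR1 (458-765) and FGFR3 (449-759) with compound were acid-quenched (0.4% formic acid) and protein adducts quantified by intact-mass LC/MS.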

Sequence of recombinant human FGFR1 catalytic domain (amino acids 308-731) (P11362 other isoform, or with tags, fused parts or gaps): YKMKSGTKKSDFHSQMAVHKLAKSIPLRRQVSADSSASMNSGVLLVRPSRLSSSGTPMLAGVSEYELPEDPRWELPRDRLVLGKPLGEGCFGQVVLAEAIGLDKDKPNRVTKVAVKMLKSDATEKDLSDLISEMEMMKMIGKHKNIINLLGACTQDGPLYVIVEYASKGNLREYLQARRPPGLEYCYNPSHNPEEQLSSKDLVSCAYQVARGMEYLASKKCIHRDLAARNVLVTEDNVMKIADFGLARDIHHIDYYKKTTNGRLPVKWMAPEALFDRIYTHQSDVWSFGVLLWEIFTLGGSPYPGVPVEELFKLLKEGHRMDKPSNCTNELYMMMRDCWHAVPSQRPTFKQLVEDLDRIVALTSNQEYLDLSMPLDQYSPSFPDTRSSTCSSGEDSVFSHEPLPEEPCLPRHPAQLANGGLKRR
Sequence of FGFR3 (SEQ ID NO: 5, amino acids 449-759) (P22607 449-759): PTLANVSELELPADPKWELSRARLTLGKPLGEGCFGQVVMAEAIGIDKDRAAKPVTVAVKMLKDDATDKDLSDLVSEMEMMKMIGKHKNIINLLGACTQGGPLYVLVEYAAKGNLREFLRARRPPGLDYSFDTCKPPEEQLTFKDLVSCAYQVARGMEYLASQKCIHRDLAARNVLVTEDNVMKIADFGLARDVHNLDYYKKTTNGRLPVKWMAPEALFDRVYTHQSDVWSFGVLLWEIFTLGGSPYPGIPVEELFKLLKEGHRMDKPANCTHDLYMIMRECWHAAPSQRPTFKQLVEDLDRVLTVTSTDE
Sequence of phosphorylated FGFR3 (SEQ ID NO: 5, amino acids 449 to 759) (P22607 449-759): as above
Sequence of recombinant human FGFR3 (amino acids R397-T806) (P22607 397-806): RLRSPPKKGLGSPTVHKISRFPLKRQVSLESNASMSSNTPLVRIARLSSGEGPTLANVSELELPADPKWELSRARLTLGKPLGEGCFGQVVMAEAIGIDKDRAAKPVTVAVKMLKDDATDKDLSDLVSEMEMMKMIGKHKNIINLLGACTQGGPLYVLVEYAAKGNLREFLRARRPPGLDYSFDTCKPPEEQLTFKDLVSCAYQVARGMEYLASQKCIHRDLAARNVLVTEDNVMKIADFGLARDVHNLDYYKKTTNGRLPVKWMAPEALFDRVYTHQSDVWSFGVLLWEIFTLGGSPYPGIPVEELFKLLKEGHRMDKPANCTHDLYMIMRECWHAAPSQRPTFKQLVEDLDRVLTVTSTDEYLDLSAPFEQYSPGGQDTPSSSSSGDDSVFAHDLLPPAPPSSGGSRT

As usually defined, the IC50 is the concentration that gives 50% inhibition. With `C=CC(=O)N(C)c1ccc(CN2CCC(n3cc(-c4cc(OC)c5c(C#N)cnn5c4)cn3)CC2)cc1` [Example 10, N-(4-((4-(4-(3-cyano-4-methoxypyrazolo[1,5-a]pyridin-6-yl)-1H-pyrazol-1-yl)piperidin-1-yl)methyl)phenyl)-N-methylacrylamide], the IC50 in assay [1] amounted to 6 nM; in assay [2], 36 nM; in assay [3] it was 4 nM; in assay [4], 34 nM. The “FGFR3 Enz kobs” value in assay [5] was determined as 0.01566 min⁻¹.

For the molecule `COc1cc(-c2cnn(C3CCN(C(=O)C4(F)CN(C(=O)/C=C/CN(C)C)C4)CC3)c2C)cn2ncc(C#N)c12` [Example 153, (E)-6-(1-(1-(1-(4-(dimethylamino)but-2-enoyl)-3-fluoroazetidine-3-carbonyl)piperidin-4-yl)-5-methyl-1H-pyrazol-4-yl)-4-methoxypyrazolo [1,5-a]pyridine-3-carbonitrile], the IC50 worked out at 5 nM in assay [1], 188 nM in assay [2], 2 nM in assay [3] and 39 nM in assay [4]. In assay [5], the “FGFR3 Enz kobs” value stood at 0.1578 min⁻¹.

As to `COc1cc(-c2c(C)nn(C3CCN(C(=O)C4(F)CN(C(=O)/C=C/CN(C)C)C4)CC3)c2C)cn2ncc(C#N)c12` [Example 161, (E)-6-(1-(1-(1-(4-(dimethylamino)but-2-enoyl)-3-fluoroazetidine-3-carbonyl)piperidin-4-yl)-3,5-dimethyl-1H-pyrazol-4-yl)-4-methoxypyrazolo [1,5-a]pyridine-3-carbonitrile], the IC50 was 20 nM in assay [1], 537 nM in assay [2], 5 nM in assay [3] and 154 nM in assay [4]. Besides, the “FGFR3 Enz kobs” value in assay [5] worked out at 0.1129 min⁻¹.

For the molecule `COc1cc(-c2cnn(C3CCN(C(=O)C4CN(C(=O)C#CCO)C4)CC3)c2)cn2ncc(C#N)c12` [Example 179, 6-(1-(1-(1-(4-hydroxybut-2-ynoyl)azetidine-3-carbonyl)piperidin-4-yl)-1H-pyrazol-4-yl)-4-methoxypyrazolo[1,5-a]pyridine-3-carbonitrile], the IC50 came to 3 nM in assay [1], 1680 nM in assay [2], 1 nM in assay [3] and 15 nM in assay [4]. For the same molecule, the “FGFR3 Enz kobs” value in assay [5] turned out to be 0.189 min⁻¹.

Turning to `COc1cc(-c2cnn(C3CCN(C(=O)C4CN(C(=O)/C=C/CCl)C4)CC3)c2)cn2ncc(C#N)c12` [Example 181, (E)-6-(1-(1-(1-(4-chlorobut-2-enoyl)azetidine-3-carbonyl)piperidin-4-yl)-1H-pyrazol-4-yl)-4-methoxypyrazolo[1,5-a]pyridine-3-carbonitrile], the IC50 in assay [1] is 2 nM; in assay [2] it was 292 nM; in assay [3], 3 nM; in assay [4], 9 nM. Also, the “FGFR3 Enz kobs” value in assay [5] is 0.02709 min⁻¹.

On to `C=CC(=O)N1CCN(C(=O)N2CCC(n3cc(-c4cc(OC)c5c(C#N)cnn5c4)cn3)CC2)C[C@@H]1CC#N` [Example 135, (S)-6-(1-(1-(4-acryloyl-3-(cyanomethyl)piperazine-1-carbonyl)piperidin-4-yl)-1H-pyrazol-4-yl)-4-methoxypyrazolo[1,5-a]pyridine-3-carbonitrile], for which the IC50 in assay [1] was 6 nM; in assay [2], 83 nM; in assay [3], 3 nM; in assay [4], 20 nM. The “FGFR3 Enz kobs” value in assay [5] came out at 0.02201 min⁻¹.

On to `CC#CC(=O)N1CC(F)(C(=O)N2CCC(n3ncc(-c4cc(OC)c5c(C#N)cnn5c4)c3C)CC2)C1` [Example 156, 6-(1-(1-(1-(but-2-ynoyl)-3-fluoroazetidine-3-carbonyl)piperidin-4-yl)-5-methyl-1H-pyrazol-4-yl)-4-methoxypyrazolo [1,5-a]pyridine-3-carbonitrile], for which the IC50 in assay [1] stood at 24 nM; in assay [2], 244 nM; in assay [3] it was 18 nM; in assay [4], 375 nM. Moreover, the “FGFR3 Enz kobs” value in assay [5] is 0.00585 min⁻¹.

The record behind these values is patent US12180207B2 (ARRAY BIOPHARMA INC., priority 2018, dated 2024).
